According to patent publication US20120202690A1, “HERBICIDAL COMPOUNDS” (SYNGENTA LIMITED, priority 2009, published 2012):
Values belong to the compound of their own block, whether it stands above or below them.

Experiments:
[1] = system: Echinochloa crusgaffi (ECHCG); assay: Post-emergence biological efficacy, glasshouse, 500 or 1000 g/ha, evaluated after 13 days (100=total damage to plant; 0=no damage to plant); assay type: in vivo; settings: Echinochloa, 312 h, rate 1,000 g/ha, read-out: Percentage damage caused to weed species, post-emergence, ECHCG
Summary of the method: (§1)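 Weed seeds were sown in standard soil in pots and the plants treated post-emergence. Afterwards they were grown on in a controlled glasshouse at 24/16° C. day/night with 14 hours light and 65% humidity, and watered twice daily.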

[2] = system: Amaranthus retroflexus (AMARE); assay: as above; assay type: in vivo; settings: Amaranthus retroflexus, 312 h, rate 1,000 g/ha, read-out: Percentage damage caused to weed species, post-emergence, AMARE
Summary of the method: as §1

[3] = system: Alopecurus myosuroides (ALOMY); assay: as above; assay type: in vivo; settings: Alopecurus myosuroides, 312 h, rate 1,000 g/ha, read-out: Percentage damage caused to weed species, post-emergence, ALOMY
Summary of the method: as §1

[4] = system: Setaria faberi (SETFA); assay: as above; assay type: in vivo; settings: Setaria faberi, 312 h, rate 1,000 g/ha, read-out: Percentage damage caused to weed species, post-emergence, SETFA
Summary of the method: as §1

[5] = system: Ipomoea hederaceae (IPOHE); assay: as above; assay type: in vivo; settings: Ipomoea, 312 h, rate 1,000 g/ha, read-out: Percentage damage caused to weed species, post-emergence, IPOHE
Summary of the method: as §1

[6] = system: Solanum nigrum (SOLNI); assay: as above; assay type: in vivo; settings: Solanum nigrum, 312 h, rate 1,000 g/ha, read-out: Percentage damage caused to weed species, post-emergence, SOLNI
Summary of the method: as §1

[7] = system: Amaranthus retroflexus (AMARE); assay: Pre-emergence biological efficacy, glasshouse, 1000 g/ha, evaluated after 13 days (100=total damage to plant; 0=no damage to plant); assay type: in vivo; settings: Amaranthus retroflexus, 312 h, rate 1,000 g/ha, read-out: Percentage damage caused to weed species, pre-emergence, AMARE
Summary of the method: (§2)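 Standard soil in pots received the seeds. Growth took place in a glasshouse held at 24/16° C. day/night, 65% humidity and 14 h of light.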

[8] = system: Alopecurus myosuroides (ALOMY); assay: as above; assay type: in vivo; settings: Alopecurus myosuroides, 312 h, rate 1,000 g/ha, read-out: Percentage damage caused to weed species, pre-emergence, ALOMY
Summary of the method: as §2

[9] = system: Setaria faberi (SETFA); assay: as above; assay type: in vivo; settings: Setaria faberi, 312 h, rate 1,000 g/ha, read-out: Percentage damage caused to weed species, pre-emergence, SETFA
Summary of the method: as §2

[10] = system: Ipomoea hederaceae (IPOHE); assay: as above; assay type: in vivo; settings: Ipomoea, 312 h, rate 1,000 g/ha, read-out: Percentage damage caused to weed species, pre-emergence, IPOHE
Summary of the method: as §2

[11] = system: Echinochloa crus-galli (ECHCG); assay: as above; assay type: in vivo; settings: Echinochloa crus-galli, 312 h, rate 1,000 g/ha, read-out: Percentage damage caused to weed species, pre-emergence, ECHCG
Summary of the method: as §2

[12] = system: Solanum nigrum (SOLNI); assay: as above; assay type: in vivo; settings: Solanum nigrum, 312 h, rate 1,000 g/ha, read-out: Percentage damage caused to weed species, pre-emergence, SOLNI
Summary of the method: as §2

- melting point: 112 to 114 °C (dec.)
Structure (SMILES): CCOCn1cc(C)c2c(C(=O)O)nc(-c3ccc(Cl)c(OC)c3F)nc21 [Compound 3-63, 4-carboxy-2-(4-chloro-2-fluoro-3-methoxyphenyl)-7-ethoxymethyl-5-methyl-7H-pyrrolo[2,3-d]pyrimidine]
- pest or weed control at 1000 g/ha [1]: 10%
- pest or weed control at 1000 g/ha [2]: 80%
- pest or weed control at 1000 g/ha [3]: 0%
- pest or weed control at 1000 g/ha [4]: 10%
- pest or weed control at 1000 g/ha [5]: 60%
- pest or weed control at 1000 g/ha [6]: 80%
- pest or weed control at 1000 g/ha [7]: 100%
- pest or weed control at 1000 g/ha [8]: 0%
- pest or weed control at 1000 g/ha [9]: 0%
- pest or weed control at 1000 g/ha [10]: 20%
- pest or weed control at 1000 g/ha [11]: 0%
- pest or weed control at 1000 g/ha [12]: 50%

- melting point: 107 to 108 °C
Structure (SMILES): CCOCn1cc(C)c2c(C(=O)OC)nc(-c3ccc(Cl)c(OC)c3F)nc21 [Compound 3-64, 2-(4-chloro-2-fluoro-3-methoxyphenyl)-7-ethoxymethyl-4-methoxycarbonyl-5-methyl-7H-pyrrolo[2,3-d]pyrimidine]
- pest or weed control at 1000 g/ha [1]: 0%
- pest or weed control at 1000 g/ha [2]: 10%
- pest or weed control at 1000 g/ha [3]: 0%
- pest or weed control at 1000 g/ha [4]: 0%
- pest or weed control at 1000 g/ha [5]: 70%
- pest or weed control at 1000 g/ha [6]: 40%
- pest or weed control at 1000 g/ha [7]: 0%
- pest or weed control at 1000 g/ha [8]: 0%
- pest or weed control at 1000 g/ha [9]: 0%
- pest or weed control at 1000 g/ha [10]: 0%
- pest or weed control at 1000 g/ha [11]: 0%
- pest or weed control at 1000 g/ha [12]: 0%

- melting point: 97 °C
Structure (SMILES): COC(=O)c1nc(-c2ccc(Cl)c(OC)c2F)nc2c1N(C)CCN2C [Compound 92-164, 2-(4-chloro-2-fluoro-3-methoxyphenyl)-5,8-dimethyl-4-methoxycarbonyl-5,6,7,8-tetrahydropteridine]
- pest or weed control at 1000 g/ha [1]: 0%
- pest or weed control at 1000 g/ha [2]: 0%
- pest or weed control at 1000 g/ha [3]: 0%
- pest or weed control at 1000 g/ha [4]: 0%
- pest or weed control at 1000 g/ha [5]: 0%
- pest or weed control at 1000 g/ha [6]: 10%
- pest or weed control at 1000 g/ha [7]: 0%
- pest or weed control at 1000 g/ha [8]: 0%
- pest or weed control at 1000 g/ha [9]: 0%
- pest or weed control at 1000 g/ha [10]: 0%
- pest or weed control at 1000 g/ha [11]: 0%
- pest or weed control at 1000 g/ha [12]: 0%

Second part, the compound before the results:

Structure (SMILES): COC(=O)c1nc(C2CC2)nc2[nH]ccc12 [Compound 1-2, 2-Cyclopropyl-4-methoxycarbonyl-7H-pyrrolo[2,3-d]pyrimidine]
- pest or weed control at 1000 g/ha [1]: 70%
- pest or weed control at 1000 g/ha [2]: 90%
- pest or weed control at 1000 g/ha [3]: 10%
- pest or weed control at 1000 g/ha [4]: 90%
- pest or weed control at 1000 g/ha [5]: 100%
- pest or weed control at 1000 g/ha [6]: 90%
- melting point: 162 to 165 °C
- pest or weed control at 1000 g/ha [7]: 30%
- pest or weed control at 1000 g/ha [8]: 0%
- pest or weed control at 1000 g/ha [9]: 0%
- pest or weed control at 1000 g/ha [10]: 20%
- pest or weed control at 1000 g/ha [11]: 0%
- pest or weed control at 1000 g/ha [12]: 50%

Structure (SMILES): COc1c(Cl)ccc(-c2nc(C(=O)O)c3c(n2)N(C)CCN3C)c1F [Compound 92-163, 4-Carboxy-2-(4-chloro-2-fluoro-3-methoxyphenyl)-5,8-dimethyl-5,6,7,8-tetrahydropteridine]
- pest or weed control at 1000 g/ha [1]: 10%
- pest or weed control at 1000 g/ha [2]: 0%
- pest or weed control at 1000 g/ha [3]: 10%
- pest or weed control at 1000 g/ha [4]: 10%
- pest or weed control at 1000 g/ha [5]: 10%
- pest or weed control at 1000 g/ha [6]: 10%
- pest or weed control at 1000 g/ha [7]: 0%
- pest or weed control at 1000 g/ha [8]: 0%
- pest or weed control at 1000 g/ha [9]: 0%
- pest or weed control at 1000 g/ha [10]: 0%
- pest or weed control at 1000 g/ha [11]: 0%
- pest or weed control at 1000 g/ha [12]: 0%
